According to patent publication US7651978B2, “Selective herbicides based on a substituted phenylsulphonylaminocarbonyl-triazolinone” (Arysta LifeScience North America, LLC, priority 1998, dated 2010):
Counter-ions that a name gives are not always drawn.

Assays:
Assay in all cases: Pre-emergence test/greenhouse
Type in all cases: in vivo
[1] = test system: Alopecurus; details: 504 h, after three weeks, read-out: degree of damage, Alopecurus
Protocol: (§1) Pre-Emergence Test/Greenhouse Solvent: 5 parts by weight of acetone Emulsifier: 1 part by weight of alkylaryl polyglycol ether To produce a suitable preparation of active compound, 1 part by weight of active compound is mixed with the stated amount of solvent, the stated amount of emulsifier is added and the concentrate is diluted with water to the desired concentration. Seeds of the test plants are sown in normal soil. After about 24 hours, the soil is sprayed with the preparation of active compound such that the particular amount of active compound desired is applied per unit area. The concentration of the spray liquor is chosen so that the particular amount of active compound desired is applied in 500 ml of water per hectare. After three weeks, the degree of damage to the plants is assessed in % damage in comparison to the development of the untreated control. The figures denote: • 0%=no effect (like untreated control) • 100%=total destruction

[2] = test system: Avena; details: 504 h, after three weeks, read-out: degree of damage, Avena
Protocol: as §1

[3] = test system: Bromus; details: 30 g of ai./ha, after three weeks
Protocol: as §1

[4] = test system: Digitaria; details: 30 g of ai./ha, after three weeks
Protocol: as §1

[5] = test system: Echinochloa; details: 30 g of ai./ha, after three weeks
Protocol: as §1

[6] = test system: Matricaria; details: 30 g of ai./ha, after three weeks
Protocol: as §1

[7] = test system: Polygonum; details: 30 g of ai./ha, after three weeks
Protocol: as §1

[8] = test system: Setaria; details: after three weeks
Protocol: as §1

[9] = test system: Wheat; details: in vivo
Protocol: as §1

## COc1nn(C(=O)NS(=O)(=O)c2ccccc2OC(F)(F)F)c(=O)n1C [(I)-Na-salt, 2-(2-trifluoromethoxy-phenylsulphonylaminocarbonyl)-4-methyl-5-methoxy-2,4-dihydro-3H-1,2,4-triazol-3-one]
[1]; 30 g of ai./ha
  pest or weed control at 30 g/ha: 100%
[1]; 250 g ai./ha
  pest or weed control at 250 g/ha: 100%
[2]; 30 g of ai./ha
  pest or weed control at 30 g/ha: 95%
[2]; 250 g ai./ha
  pest or weed control at 250 g/ha: 99%
[3]
  degree of damage, Bromus: 100%
[4]
  degree of damage, Digitaria: 100%
[5]
  degree of damage, Echinochloa: 80%
[6]
  degree of damage, Matricaria: 100%
[7]
  degree of damage, Polygonum: 90%
[8]; 30 g of ai./ha
  degree of damage, Setaria: 100%
[8]; 250 g ai./ha
  degree of damage, Setaria: 99%
[9]
  compatibility with crop plants (wheat), in words: very good compatibility
[9]; wheat, 3 weeks
  degree of damage, Wheat: 0%
